Reference: PMC12269843, “The molecular basis of T cell receptor recognition of citrullinated tenascin-C presented by HLA-DR4” (The Journal of Biological Chemistry, 2025)
Where a SMILES comes first, the peptide text is derived from it.

How the values were obtained:
Experiment in all cases: Fluorescence polarization peptide competition assay
HLA-DRB1^∗04:01 = target: T1, HLA-DRB1^∗04:01 (Homo sapiens, UniProt P01903+P01911, A100K/A169T/F76Y/I96L/K127E/L162R/M171V/N62H/P40V/Q125Y/R42H/S133A/S149N/S66Y/V115G/V209L/W38E); conditions: competition with 20 nM TAMRA-HA, 100 nM HLA-DRB1, 20 nM HLA-DM, 100 mM trisodium citrate pH 5.4, 50 mM NaCl, 5 mM EDTA, 37 °C, 24-72 h, two independent experiments in triplicate, read-out: IC50, competitive binding to DRB1^∗04:01
T1 construct: the extracellular domains of the α-chain and β-chain of HLA-DRB1^∗04:01; Fos/Jun leucine zipper (C); invariant chain (CLIP) peptide, covalently linked; made in house
Protocol: (§1) The fluorescent polarization was measured by PHERAstar microplate reader (BMG LABTECH) after 24 h, 48 h and 72 h incubation at 37 °C. The peptide binding curves were plotted by non-linear regression in Prism 10 (GraphPad Software, version 10.2.0) using a sigmoidal dose-response curve. […] All data were derived from two independent experiments in triplicate.

HLA-DRB1^∗14:02 = HLA-DRB1^∗14:02 (Homo sapiens, UniProt P01903+P01911, A100R/A169T/D57E/F76Y/I96L/K41T/L162R/M171V/P40S/Q125H/Q178H/Q39Y/R42S/S66N/T262R/V115G/W38E/Y61H); conditions: competition with 20 nM TAMRA-HA, 100 nM HLA-DRB1, 20 nM HLA-DM, 100 mM trisodium citrate pH 5.4, 50 mM NaCl, 5 mM EDTA, 37 °C, 24-72 h, two independent experiments in triplicate, read-out: IC50, competitive binding to DRB1^∗14:02
Protocol: as §1
HLA-DRB1^∗04:04 = HLA-DRB1^∗04:04 (Homo sapiens, UniProt P01903+P01911, A100R/A169T/F76Y/I96L/K127E/L162R/M171V/N62H/P40V/Q125Y/R42H/S133A/S149N/S66Y/V209L/W38E); conditions: competition with 20 nM TAMRA-HA, 100 nM HLA-DRB1, 20 nM HLA-DM, 100 mM trisodium citrate pH 5.4, 50 mM NaCl, 5 mM EDTA, 37 °C, 24-72 h, two independent experiments in triplicate, read-out: IC50, competitive binding to DRB1^∗04:04
Protocol: as §1
HLA-DRB1^∗04:05 = HLA-DRB1^∗04:05 (Homo sapiens, UniProt P01903+P01911, A100R/A169T/D86S/F76Y/I96L/K127E/L162R/M171V/N62H/P40V/Q125Y/R42H/S133A/S149N/S66Y/V115G/V209L/W38E); conditions: competition with 20 nM TAMRA-HA, 100 nM HLA-DRB1, 20 nM HLA-DM, 100 mM trisodium citrate pH 5.4, 50 mM NaCl, 5 mM EDTA, 37 °C, 24-72 h, two independent experiments in triplicate, read-out: IC50, competitive binding to DRB1^∗04:05
Protocol: as §1
HLA-DRB1^∗01:01 = HLA-DRB1^∗01:01 (Homo sapiens, UniProt P01903+P01911, A100R/D57E/F55L/F60I/F76Y/I96L/L162R/M171V/P40L/Q125E/R42F/V115G/Y59C); conditions: competition with 20 nM TAMRA-HA, 100 nM HLA-DRB1, 20 nM HLA-DM, 100 mM trisodium citrate pH 5.4, 50 mM NaCl, 5 mM EDTA, 37 °C, 24-72 h, two independent experiments in triplicate, read-out: IC50, competitive binding to DRB1^∗01:01
Protocol: as §1

IC50 (HLA-DRB1^∗04:01): 1140 nM
IC50 (HLA-DRB1^∗14:02): 1310 nM
IC50 (HLA-DRB1^∗04:04): > 300000 nM
IC50 (HLA-DRB1^∗04:05): 4810 nM
IC50 (HLA-DRB1^∗01:01): 800 nM
Structure (SMILES): CC(C)C[C@H](NC(=O)[C@H](CCCNC(N)=O)NC(=O)[C@H](Cc1ccc(O)cc1)NC(=O)[C@H](CCCNC(N)=O)NC(=O)[C@@H](N)CC(=O)O)C(=O)N[C@@H](CC(N)=O)C(=O)N[C@@H](Cc1ccc(O)cc1)C(=O)N[C@@H](CO)C(=O)N[C@@H](CC(C)C)C(=O)N1CCC[C@H]1C(=O)N[C@H](C(=O)NCC(=O)O)[C@@H](C)O [TNC^1014,1016cit] (HELM PEPTIDE1{D.[Cit].Y.[Cit].L.N.Y.S.L.P.T.G}$$$$V2.0)
